Structures can show the parent of a compound that is named as a salt. Where two headings read alike, the source gives them in different places.
Experiments:
[1] = system: mit Reserpin behandelten Maus; assay: Anti-Parkinson effect: induction of motility in mice treated with reserpine 24 h earlier; assay type: in vivo; conditions: 2 mg/kg s.c., measured 20 min later, group of 6 mice, x ± sx; saline controls ca. 5
Description: 3. Bestimmung der Anti-Parkinson-Wirkung nach der Methode von Hinzen D. et al., European Journal of Pharmacology 131, 75-88 (1986):
a) Motilitätsauslösung an der 24 Stunden zuvor mit Reserpin behandelten Maus:
Mäuse werden 24 Stunden vor dem Experiment mit 5 mg/kg Reserpin i.p. behandelt; die Tiere werden bei 25-30°C gehalten und 3 × mit 2 ml einer 5%igen Glucose-lösung in Tyrode s.c. behandelt. Gruppen zu je 6 Tieren erhalten die Testsubstanz mit 2 mg/kg s.c. injiziert. 20 Minuten später werden die Tiere zur Aktivitätsmessung in Beobachtungskäfige gesetzt, die mit einer Infrarotlichtschranke ausgerüstet sind. Meß-wert ist die Häufigkeit des Passierens des Infrarotstrahles durch eine Gruppe von 6 Mäusen in 5 Minuten ("Laufimpulse/5 Minuten").
Pro Substanz werden 6 Gruppen geprüft. Kontrolltiere erhalten isotone Kochsalzlösung s.c..
Als Ergebnis werden die mit der Testsubstanz erzielten Laufimpulse/5 Minuten dargestellt (x ± sx) Kontrolltiere (Kochsalzlösung) zeigen minimale Aktivität (ca. 5 Laufimpulse/5 Minuten).

Dopamin (D₂)-Rezeptor = target: T1, Dopamin (D₂)-Rezeptor (Rattus norvegicus, UniProt P61169); assay: Dopamine (D2) receptor binding affinity, 3H-spiroperidol displacement in rat striatal homogenate; set-up: species or system Ratten
T1 construct: Die Striata werden herauspräpariert und in 25 ml eiskaltem Puffer; from tissue; host or cells: rat striatum membrane homogenate
T1 sequence (P61169 whole entry): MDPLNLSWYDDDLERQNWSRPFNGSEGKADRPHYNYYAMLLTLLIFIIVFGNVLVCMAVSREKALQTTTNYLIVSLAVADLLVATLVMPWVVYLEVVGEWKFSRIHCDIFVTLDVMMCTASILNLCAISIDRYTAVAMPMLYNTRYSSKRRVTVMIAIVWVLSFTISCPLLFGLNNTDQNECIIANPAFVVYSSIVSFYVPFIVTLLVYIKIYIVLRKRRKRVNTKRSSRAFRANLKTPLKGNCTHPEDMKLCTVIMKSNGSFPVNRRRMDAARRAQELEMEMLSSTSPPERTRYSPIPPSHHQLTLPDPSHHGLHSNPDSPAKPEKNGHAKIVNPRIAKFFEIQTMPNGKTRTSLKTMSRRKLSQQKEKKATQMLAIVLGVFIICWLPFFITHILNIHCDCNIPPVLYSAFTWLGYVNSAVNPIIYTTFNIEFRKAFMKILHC
Description: 1.) Bestimmung der Dopamin (D₂)-Rezeptorbindungsaffinitäten nach der modifizierten Methode von D.J. de Vries und P.M. Beart (Europ. J. Pharmacology 109, 417-419 (1985)):
Ratten werden durch Schlag betäubt, dekapitiert und das Ge hirn entnommen. Die Striata werden herauspräpariert und in 25 ml eiskaltem Puffer (50 mM TRIS-HCl, 1 mM EDTA, 5 mM MgCl₂, 1mM Ascorbinsäure, pH=7,20) homogenisiert. Das Homogenat wird 15 Minuten bei 0°C und 50000 × g zentrifugiert. Der Überstand wird verworfen. Das Pellet wird durch Resuspension und erneute Zentrifugation zweimal gewaschen und anschließend bei 37°C eine halbe Stunde vorinkubiert. Das Inkubat wird wie zuvor beschrieben zentrifugiert und der Überstand verworfen. Das Pellet wird in 60 ml Puffer resuspen diert, homogenisiert und dann mit Puffer 1:500 bezogen auf das Striatagewicht verdünnt.
Für den Inkubationsansatz werden 10 µl ³H-Spiroperidol-Lö-sung ([…]; Endkonzentration: 2,5 × 10⁻¹⁰ M), 970 µl Puffer sowie 20 µl Testsubstanzlösung (Endkonzentration: 10⁻¹¹-10⁻⁴ M) vorgelegt. Die unspezifische Bindung wird in Gegenwart von 1 µM Haloperidol bestimmt. Durch Zugabe von 1 ml Homogenatlösung zu dieser Vorlage wird der Assay gestartet. Die Inkubationszeit beträgt 60 Minuten bei Raumtemperatur. Nach Ablauf dieser Zeit wird das Inkubat über ein GF/B-Filter abgesaugt und mit 15 ml eiskaltem Puffer gewaschen. Das feuchte Filter wird mit Instagel® versetzt und über Nacht extrahiert. Anschließend wird die verbliebene Radioaktivität in einem Packard CA 2000 Szintillationscounter bei einer Zählausbeute von 50-55 % gezählt.
Mit Hilfe eines 2-Bindungsstellen-Iterationsprogrammes werden die IC₅₀-Werte ermittelt und daraus die Ki-Werte berechnet.

Dopamin-Autorezeptoren = assay: Inhibition of dopamine turnover (AMPT-induced fall of whole-brain dopamine) in mice; assay type: in vivo, Mäusen; conditions: 5 mg/kg s.c., AMPT 250 mg/kg i.p. at 15 min, whole brain dopamine at 4 h 15 min
Description: 2. Bestimmung der Dopaminturnoverhemmung:
Die Dopaminturnoverhemmung wurde an Mäusen gemessen. Bei Tieren, die mit α-Methyl-p-tyrosin (AMPT) (250 mg/kg i.p.) zum Zeitpunkt 15 Minuten des Experimentes behandelt werden, fällt die Dopaminkonzentration im Gesamthirn mit fortschreitender Versuchsdauer ab. Durch Substanzen, die an Dopamin-Autorezeptoren wirken, kann der Dopaminabfall (im Vergleich zu mit Kochsalzlösung behandelten Kontrolltieren) verhindert werden. Testsubstanzen werden zum Zeitpunkt 0 des Experiments subkutan appliziert (5 mg/kg s.c.). Zum Zeitpunkt 4 Stunden und 15 Minuten des Experiments werden die Tiere getötet und die Gehirne der Dopaminbestimmung mittels Hochdruckflüssigkeitschromatographie mit elektrochemischer Detektion zugeführt. Bestimmt wird die durch die Testsubstanz bewirkte prozentuale Hemmung des durch AMPT induzierten Dopaminabfalls: […]

MPTP-Affen = assay: Anti-Parkinson effect: abolition of Parkinson symptoms in the MPTP monkey; assay type: in vivo, Rhesusaffen; conditions: for Dauer (Wirkungsdauer): at the minimal dose; for minimal effective dose: Macaca mulatta, im, read-out: Dosis (Mindestdosen, die zur Aufhebung der Parkinsonsymptomatik führen)
Text: b) Aufhebung der Parkinsonsymptome am MPTP-Affen nach der modifizierten Methode von Burns, R.S. und Chuang, C.: Proc. Natl. Acad. Sci. 80, 4546-4550 (1983):
Das durch das Neurotoxin 1-Methyl-4-phenyl-1,2,3,6-tetrahydro-pyridin (MPTP) beim Menschen und beim Affen ausgelöste, irreversible neurologische Krankheitsbild ähnelt in seiner klinischen, pathologischen, biochemischen und pharmakologischen Ausprägung weitgehend der idiopathischen Parkinson'schen Erkrankung (Markey et al., Nature 311, 464 (1984)). Ursache dieser überzeugenden Übereinstimmung ist die Tatsache, daß MPTP selektiv jene dopaminergen Nervenzellen in der Substantia nigra des Gehirns zerstört, welche auch bei der natürlich auftretenden Parkinson'schen Erkrankung durch degenerative Prozesse zerstört werden. Es wird diskutiert, daß auch die Ursache der idiopathischen Parkinson'schen Erkrankung im Organismus entstehendes MPTP oder eine ähnliche chemische Verbindung ist (Snyder, S.H., Nature 311, 514 (1984)). Möglicherweise bedingt durch den spezifischen Metabolismus des MPTP ist die klinische Ausprägung des MPTP-Parkinson'bildes bisher außer beim Menschen nur beim Affen nachweisbar.
Das an Rhesusaffen verwirklichte MPTP-Modell ist daher in hervorragendem Maße geeignet, die Wirkung von Anti-Parkinson-Medikamenten zu prüfen. Insgesamt 7 Rhesusaffen waren an dem Versuch beteiligt. Sie hatten über mehrere Tage verteilt, kumulative Dosen von 2,4-6,25 mg/kg MPTP erhalten, bis stabile und irreversible Parkinson-Symptome aufgetreten waren. Im Vordergrund der Symptomatik stand die Bradykinesie, die alle Tiere zeigten, teilweise sogar bis hin zur Akinesie. Kein Tier war in der Lage, spontan Wasser oder Futter aufzunehmen. Die Reaktivität war stark vermindert, meist verharrten die Tiere in einer typischen Beugehaltung. Tremor wurde gelegentlich gesehen. Die Extremitäten wiesen einen Rigor auf. Bei dem Versuch einer Willkür-Motorik traten häufig klonische Krämpfe auf.
Die nachfolgenden Verbindungen wurden jeweils an 2-3 der so vorbehandelten Tiere getestet. Bei intramuskulärer Gabe wurden nach etwa 5 bis 10 Minuten erste koordinierte Willkürbewegungen möglich, die in den folgenden 10 bis 30 Minuten von einer allmählichen, weitestgehenden Normalisierung der Motorik gefolgt waren. Die Tiere waren in der Lage, Nahrung aufzunehmen. Sie verhielten sich innerhalb ihrer Käfige regelgerecht, dies galt auch hinsichtlich Vigilanz und artspezifischen Verhaltens. Als Restsymptomatik wurde gelegentlich leichter Ruhetremor registriert.
Sobald die Wirkung der Verbindungen nachließ, verfielen die Tiere wieder in die oben beschriebene Parkinson-Symptomatik; eine erneute Applikation der Verbindungen führte wieder zur Besserung bzw. weitgehenden Aufhebung der klinischen Erscheinungen.
Nebenwirkungen traten in den bisher angewandten Dosierungen nicht in Erscheinung.
In der nachfolgenden Tabelle werden sowohl die Mindestdosen, die zur Aufhebung der Parkinsonsymptomatik führen, angegeben, als auch die Wirkungsdauer.

Mäusen = assay: Toxicity in mice, oral dosing; assay type: in vivo; conditions: doses up to 500 mg/kg p.o.
Text: Ferner sind die erfindungsgemäß hergestellten Verbindungen weitgehend untoxisch. So konnten z.

[2] = rat striata, 3H-Spiroperidol 2,5 × 10⁻¹⁰ M, 60 min at room temperature, Ki calculated from IC50, read-out: Ki
[3] = MPTP-treated rhesus monkeys, i.m.

Ki (Dopamin (D₂)-Rezeptor; [2]) [nM] | Compound | Zahl der Laufimpulse/5 min [1] [Laufimpulse/5 min] | Hemmung des Dopaminabfalls (Dopamin-Autorezeptoren) [%] | Ki (Dopamin (D₂)-Rezeptor) [nM] | Dauer (Wirkungsdauer) (MPTP-Affen; [3]) | minimal effective dose (MPTP-Affen) [mg/kg] | Todesfälle (Mäusen) | minimal effective dose (MPTP-Affen; MPTP-treated rhesus monkeys, 2-3 animals per compound, i.m.) [mg/kg]
36 | CCCN1CCC=C(c2csc(N)n2)C1 [Substanz A, 2-Amino-4-(1-propyl-1,2,3,6-tetrahydro-pyridin-5-yl)-thiazol] | 44 ± 4 | 35 | – | – | – | – | –
– | CCCN1CCC(c2csc(N)n2)CC1 [Substanz F, 2-Amino-4-(1-propyl-piperidin-4-yl)thiazol] | 65 ± 17 | 59 | 38 | 2-3 Std. | 0.2 | – | –
– | CCCN1CC=C(c2csc(N)n2)CC1 [Substanz D, 2-Amino-4-(1-propyl-1,2,3,6-tetrahydro-pyridin-4-yl)-thiazol] | 80 ± 10 | 80 | 6 | 2-3 Std. | 0.03 | – | –
3 | Nc1nc(C2=CCCNC2)cs1 [Substanz E, 2-Amino-4-(1,2,3,6-tetrahydro-pyridin-5-yl)thiazol-dihydrochlorid] | – | – | – | – | – | – | –
– | C=CCN1CC=C(c2csc(N)n2)CC1 [Substanz C, 2-Amino-4-(1-allyl-1,2,3,6-tetrahydro-pyridin-4-yl)-thiazol] | 32 ± 7 | 47 | 22 | 2-4 Std. | 0.35 | keine Todesfälle | –

Compound | Ki (Dopamin (D₂)-Rezeptor; [2]) [nM] | Zahl der Laufimpulse/5 min [1] [Laufimpulse/5 min] | Hemmung des Dopaminabfalls (Dopamin-Autorezeptoren) [%] | Ki (Dopamin (D₂)-Rezeptor) [nM] | Dauer (Wirkungsdauer) (MPTP-Affen; [3]) | minimal effective dose (MPTP-Affen) [mg/kg] | Todesfälle (Mäusen) | minimal effective dose (MPTP-Affen; MPTP-treated rhesus monkeys, 2-3 animals per compound, i.m.) [mg/kg]
C=CCN1CCC=C(c2csc(N)n2)C1 [Substanz B, 2-Amino-4-(1-allyl-1,2,3,6-tetrahydro-pyridin-5-yl)-thiazol] | 8 | 52 ± 9 | – | – | 2-5 Std. | – | – | 0.05

From patent EP0280873A1, “Piperidines, medicines containing them and process for their preparation” (Dr. Karl Thomae GmbH, priority 1987, dated 1988)
